PMC6792352, “Limited Chemical Structural Diversity Found to Modulate Thyroid Hormone Receptor in the Tox21 Chemical Library” (Environmental Health Perspectives, 2019)
Where a name gives a salt, the structure may show the parent alone.

Experiment: in vitro
Settings: rat, gh3-tre-luc cells

Row | SMILES | CC50 at 24 h (AC50 (uM) modified / 1000) | other results
1 | CCOc1cc(OCC)c(C(=O)CCC(=O)O)cc1OCC [Trepibutone] | > 50 µM | 
2 | COc1cc2c(cc1OC)[C@@H](c1ccccc1)CN(C)CC2 [Trepipam maleate] | > 50 µM | 
3 | COc1cc2c(cc1OC)-c1c/c(=N\c3c(C)cc(C)cc3C)n(C)c(=O)n1CC2 [Trequinsin hydrochloride] | 20.3 µM | 
4 | CC1=C(/C=C/C(C)=C/C=C/C(C)=C/C(=O)Oc2c(C)c(C)c3c(c2C)CC[C@@](C)(CCC[C@H](C)CCC[C@H](C)CCCC(C)C)O3)C(C)(C)CCC1 [Tretinoin tocoferil] | > 50 µM | 
5 | Cc1ccccc1OP(=O)(Oc1ccccc1C)Oc1ccccc1C [Tri-o-cresyl phosphate] |  | CC50 at 24 h (AC50 (uM) modified / 1000, Tox21_110001=Tox21_202983, viability, 1 nM T3 present, 24 h): 63.4 µM
6 | CC(=O)OCC(COC(C)=O)OC(C)=O [Triacetin] | > 90 µM | 
7 | CC(C)(C)C(=O)C(Oc1ccc(Cl)cc1)n1cncn1 (stereo not drawn) [Triadimefon] | > 90 µM | 
8 | CC(C)(C)C(O)C(Oc1ccc(Cl)cc1)n1cncn1 (stereo not drawn) [Triadimenol] | > 90 µM | 
9 | C=CCn1c(=O)n(CC=C)c(=O)n(CC=C)c1=O [Triallyl isocyanurate] | > 90 µM | 
10 | C=CCOC(=O)c1ccc(C(=O)OCC=C)c(C(=O)OCC=C)c1 [Triallyl trimellitate] | > 90 µM | 
11 | C=CCN(CC=C)CC=C [Triallylamine] | > 90 µM | 
12 | CC1(C)O[C@@H]2C[C@H]3[C@@H]4CCC5=CC(=O)C=C[C@]5(C)[C@@]4(F)[C@@H](O)C[C@]3(C)[C@]2(C(=O)CO)O1 [Triamcinolone acetonide] | > 90 µM | 
13 | CC(=O)OCC(=O)[C@@]1(O)[C@H](OC(C)=O)C[C@H]2[C@@H]3CCC4=CC(=O)C=C[C@]4(C)[C@@]3(F)[C@@H](O)C[C@@]21C [Triamcinolone diacetate] | > 50 µM | 
14 | CC(C)(C)CC(=O)OCC(=O)[C@@]12OC(C)(C)O[C@@H]1C[C@H]1[C@@H]3CCC4=CC(=O)C=C[C@]4(C)[C@@]3(F)[C@@H](O)C[C@@]12C [Triamcinolone hexacetonide] | > 50 µM | 
15 | C[C@]12C=CC(=O)C=C1CC[C@H]1[C@@H]3C[C@@H](O)[C@](O)(C(=O)CO)[C@@]3(C)C[C@H](O)[C@@]12F [Triamcinolone] | > 90 µM | 
16 | Nc1nc(N)c2nc(-c3ccccc3)c(N)nc2n1 [Triamterene] | > 90 µM | 
17 | COc1nc(C)nc(NC(=O)NS(=O)(=O)c2ccccc2OCCCl)n1 [Triasulfuron] | > 90 µM | 
18 | Cc1nnc2n1-c1ccc(Cl)cc1C(c1ccccc1Cl)=NC2 [Triazolam] | > 50 µM | 
19 | CCOC1O[C@H]([C@@H](COCc2ccccc2)OCc2ccccc2)[C@H](OCc2ccccc2)[C@H]1O (stereo partly drawn) [Tribenoside] | > 20 µM | 
20 | COC(=O)c1ccccc1S(=O)(=O)NC(=O)N(C)c1nc(C)nc(OC)n1 [Tribenuron-methyl] | > 100 µM | 
21 | c1ccc(CN(Cc2ccccc2)Cc2ccccc2)cc1 [Tribenzylamine] | > 90 µM | 
22 | O=CC(Br)(Br)Br [Tribromoacetaldehyde] |  | CC50 at 24 h (AC50 (uM) modified / 1000, Tox21_110001=Tox21_200535, viability, 1 nM T3 present, 24 h): 25.5 µM
23 | O=C(O)C(Br)(Br)Br [Tribromoacetic acid] |  | CC50 at 24 h (AC50 (uM) modified / 1000, Tox21_110001=Tox21_200913, viability, 1 nM T3 present, 24 h): > 90 µM
24 | O=C(Nc1ccc(Br)cc1)c1cc(Br)cc(Br)c1O [Tribromsalan] |  | CC50 at 24 h (AC50 (uM) modified / 1000, Tox21_110001=Tox21_111700, viability, 1 nM T3 present, 24 h): 14.2 µM; CC50 at 24 h (AC50 (uM) modified / 1000, Tox21_110001=Tox21_202442, viability, 1 nM T3 present, 24 h): 5.41 µM; CC50 at 24 h (AC50 (uM) modified / 1000, Tox21_110001=Tox21_303223, viability, 1 nM T3 present, 24 h): 6.43 µM
25 | CCCCSP(=O)(SCCCC)SCCCC [Tribufos] |  | CC50 at 24 h (AC50 (uM) modified / 1000, Tox21_110001=Tox21_201934, viability, 1 nM T3 present, 24 h): > 90 µM
26 | CCCCN(CCCC)CCCC [Tributylamine] | > 90 µM | 

Row | SMILES | CC50 at 24 h (AC50 (uM) modified / 1000) | other results
27 | CCCC[P+](C)(CCCC)CCCC [Tributylmethylphosphonium methyl sulfate] | > 90 µM | 
28 | CCCCP(CCCC)CCCC [Tributylphosphine] | > 90 µM | 
29 | CCCCCCCC(=O)OCC(COC(=O)CCCCCCC)OC(=O)CCCCCCC [Tricaprylin] | > 90 µM | 
30 | COP(=O)(OC)C(O)C(Cl)(Cl)Cl (stereo not drawn) [Trichlorfon] |  | CC50 at 24 h (AC50 (uM) modified / 1000, Tox21_110001=Tox21_110843, viability, 1 nM T3 present, 24 h): > 50 µM; CC50 at 24 h (AC50 (uM) modified / 1000, Tox21_110001=Tox21_201607, viability, 1 nM T3 present, 24 h): > 90 µM
31 | NS(=O)(=O)c1cc2c(cc1Cl)NC(C(Cl)Cl)NS2(=O)=O (stereo not drawn) [Trichlormethiazide] | > 20 µM | 
32 | O=C(O)C(Cl)(Cl)Cl [Trichloroacetic acid] | > 90 µM | 
33 | N#CC(Cl)(Cl)Cl [Trichloroacetonitrile] | > 90 µM | 
34 | O=C(Cl)C(Cl)(Cl)Cl [Trichloroacetyl chloride] | > 90 µM | 
35 | ClC=C(Cl)Cl [Trichloroethylene] | > 90 µM | 
36 | FC(Cl)(Cl)Cl [Trichlorofluoromethane] | > 90 µM | 
37 | CSc1nc2cc(Cl)c(Oc3cccc(Cl)c3Cl)cc2[nH]1 [Triclabendazole] | 28.5 µM | 
38 | CCCCOCCOC(=O)COc1nc(Cl)c(Cl)cc1Cl [Triclopyr butotyl] | > 90 µM | 
39 | O=C(O)COc1nc(Cl)c(Cl)cc1Cl [Triclopyr] | > 90 µM | 
40 | Cc1ccc(OP(=O)(Oc2ccc(C)cc2)Oc2ccc(C)cc2)cc1 [Tricresyl phosphate] |  | CC50 at 24 h (AC50 (uM) modified / 1000, Tox21_110001=Tox21_201546, viability, 1 nM T3 present, 24 h): > 90 µM
41 | OCC1CC2CC1C1CCC(CO)C21 (stereo not drawn) [Tricyclodecanedimethanol] | > 90 µM | 
42 | CCCCCCCCCCC=CC#N [Tridec-2-enenitrile] | > 90 µM | 
43 | CCCCCCCCCCCCC [Tridecane] | > 90 µM | 
44 | O=C(O)CCCCCCCCCCCC(=O)O [Tridecanedioic acid] | > 90 µM | 
45 | CCCCCCCCCCCCC(=O)O [Tridecanoic acid] | > 90 µM | 
46 | C=C(C)C(=O)OCCCCCCCCCCCCC [Tridecyl methacrylate] | > 90 µM | 
47 | CCCCCCCCCCCCCN1CC(C)OC(C)C1 (stereo not drawn) [Tridemorph] | > 90 µM | 
48 | CC[N+](CC)(CC)CCC(O)(c1ccccc1)C1CCCCC1 (stereo not drawn) [Tridihexethyl chloride] | > 20 µM | 
49 | CCCCCCCCCCCCN(CCCCCCCCCCCC)CCCCCCCCCCCC [Tridodecylamine] | > 90 µM | 
50 | CCCCCCCCCCCCCCCCCC(=O)O [Triethanolamine stearate] | > 90 µM | 
51 | CCO[Si](CC(C)C)(OCC)OCC [Triethoxy(2-methylpropyl)silane] | > 90 µM | 
52 | CCO[Si](OCC)(OCC)c1ccccc1 [Triethoxy(phenyl)silane] | > 90 µM | 

Row | SMILES | CC50 at 24 h (AC50 (uM) modified / 1000) | other results
53 | CCO[Si](CCC1CCC2OC2C1)(OCC)OCC (stereo not drawn) [Triethoxy[2-(7-oxabicyclo[4.1.0]hept-3-yl)ethyl]silane] | > 90 µM | 
54 | CCO[Si](C)(OCC)OCC [Triethoxymethylsilane] | > 90 µM | 
55 | CCCCCCCC[Si](OCC)(OCC)OCC [Triethoxyoctylsilane] | > 90 µM | 
56 | CCCCC[Si](OCC)(OCC)OCC [Triethoxypentylsilane] | > 90 µM | 
57 | CCOC(=O)CC(O)(CC(=O)OCC)C(=O)OCC [Triethyl citrate] | > 90 µM | 
58 | CCN(CC)CC [Triethylamine] | > 100 µM | 
59 | CCCCC(CC)C(=O)OCCOCCOCCOC(=O)C(CC)CCCC (stereo not drawn) [Triethylene glycol bis(2-ethylhexanoate)] | > 90 µM | 
60 | CC(=O)OCCOCCOCCOC(C)=O [Triethylene glycol diacetate] | > 90 µM | 
61 | O=C(OCCOCCOCCOC(=O)c1ccccc1)c1ccccc1 [Triethylene glycol dibenzoate] | > 90 µM | 
62 | C=C(C)C(=O)OCCOCCOCCOC(=O)C(=C)C [Triethylene glycol dimethacrylate] | > 90 µM | 
63 | COCCOCCOCCOC [Triethylene glycol dimethyl ether] | > 90 µM | 
64 | OCCOCCOCCO [Triethylene glycol] | > 100 µM | 
65 | NCCNCCNCCN [Triethylenetetramine] | > 90 µM | 
66 | C[CH2][Ge]([Cl])([CH2]C)[CH2]C [Triethylgermanium chloride] | > 90 µM | 
67 | O=S(=O)(NS(=O)(=O)C(F)(F)F)C(F)(F)F [Triethylsulfonium bis(trifluoromethanesulfonyl)imide] | > 90 µM | 
68 | CO/N=C(/C(=O)OC)c1ccccc1CO/N=C(\C)c1cccc(C(F)(F)F)c1 [Trifloxystrobin] | 36.9 µM | 
69 | COc1cc(OC)nc(NC(=O)NS(=O)(=O)c2ncccc2OCC(F)(F)F)n1 [Trifloxysulfuron-sodium] |  | CC50 at 24 h (AC50 (uM) modified / 1000, Tox21_110001=Tox21_301184, viability, 1 nM T3 present, 24 h): > 90 µM
70 | CCCOC/C(=N\c1ccc(Cl)cc1C(F)(F)F)n1ccnc1 [Triflumizole] | 58.4 µM | 
71 | O=C(NC(=O)c1ccccc1Cl)Nc1ccc(OC(F)(F)F)cc1 [Triflumuron] | > 90 µM | 
72 | CC(CN(C)C)CN1c2ccccc2Sc2ccc(C(F)(F)F)cc21 (stereo not drawn) [Trifluomeprazine 2-butenedioate] | 9.4 µM | 
73 | O=S(=O)(O)C(F)(F)F [Trifluoromethanesulfonic acid] | > 90 µM | 
74 | O=C(CCCN1CCC(O)(c2cccc(C(F)(F)F)c2)CC1)c1ccc(F)cc1 [Trifluperidol hydrochloride] | 24 µM | 
75 | CN(C)CCCN1c2ccccc2Sc2ccc(C(F)(F)F)cc21 [Triflupromazine hydrochloride] | 9.02 µM | 
76 | O=c1[nH]c(=O)n([C@H]2C[C@H](O)[C@@H](CO)O2)cc1C(F)(F)F [Trifluridine] | > 50 µM | 
77 | CC(=O)Oc1cc(C(F)(F)F)ccc1C(=O)O [Triflusal] | > 20 µM | 
78 | O=CNC(N1CCN(C(NC=O)C(Cl)(Cl)Cl)CC1)C(Cl)(Cl)Cl (stereo not drawn) [Triforine] | > 90 µM | 
